{"source": "the NIST ThermoML archive (doi:10.1021/acs.jced.6b00957)", "key": {"[1]": {"assay": "Molar enthalpy of transition or fusion", "settings": "Crystal; DSC"}, "[2]": {"settings": "Crystal; DTA"}}, "note": "± gives the expanded uncertainty stated by the source."}
{"smiles": "O=C(O)c1c(O)cccc1O", "note": "[2,6-dihydroxybenzoic acid]", "values": [{"measurement": "Molar enthalpy of transition or fusion", "setting": "[1]", "result": "6.05 ± 0.382", "unit": "kcal/mol"}, {"measurement": "Normal melting temperature", "setting": "[2]", "result": "167.1 ± 4", "unit": "°C"}]}
